The term IC50 denotes the midpoint of a concentration-inhibition curve. A lower IC50 goes with higher potency.

For the test, the target named is YKL-40 (Homo sapiens (Human), UniProt P36222). Briefly: YKL-40:4 assay, competitive chitin binding site AlphaScreen. Particulars: competition with biotinylated compound 4 (20 nM), YKL-40-histag 2.5 nM. Background: Bead proximity is the source of the signal in Alpha formats.

The structures appear in SMILES notation. Counter-ions that a name gives are not always drawn.

Chain of YKL-40 (P36222 22-383): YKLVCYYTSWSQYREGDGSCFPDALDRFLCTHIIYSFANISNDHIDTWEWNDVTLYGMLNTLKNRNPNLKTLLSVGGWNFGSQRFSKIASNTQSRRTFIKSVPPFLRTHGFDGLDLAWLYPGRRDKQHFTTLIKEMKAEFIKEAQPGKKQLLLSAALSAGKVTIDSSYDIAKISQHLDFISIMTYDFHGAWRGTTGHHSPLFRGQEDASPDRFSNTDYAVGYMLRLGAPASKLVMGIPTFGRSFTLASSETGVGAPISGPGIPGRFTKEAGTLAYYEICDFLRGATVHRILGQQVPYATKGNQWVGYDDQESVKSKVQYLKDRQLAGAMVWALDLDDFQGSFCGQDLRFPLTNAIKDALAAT

The molecule `C[C@@H](O)CN1C[C@H](Cc2ccc(Cl)cc2)N(C2CCN(c3ccccn3)CC2)C[C@@H]1C` [compound 102, (R)-1-((2S,5S)-5-(4-chlorobenzyl)-2-methyl-4-(1-(pyridin-2-yl)piperidin-4-yl)piperazin-1-yl)propan-2-ol 2,2,2-trifluoroacetate] had an IC50 of 0.1 to 1 µM. Next, `COC(=O)c1ccnc(N2CCC(N3C[C@H](C)OC[C@@H]3Cc3ccc(Cl)cc3)CC2)c1F` [compound 122, methyl 2-(4-((2S,5S)-5-(4-chlorobenzyl)-2-methylmorpholino)piperidin-1-yl)-3-fluoroisonicotinate]: greater than 100 µM; `C[C@H]1CN(C2CCN(c3cc(Cl)ccc3C#N)CC2)[C@@H](Cc2ccc(Cl)cc2)CO1` [compound 115, 4-chloro-2-(4-((2S,5S)-5-(4-chlorobenzyl)-2-methylmorpholino)piperidin-1-yl)benzonitrile 2,2,2-trifluoroacetate]: greater than 100 µM.

`Cc1cnnc(N2CCC(N3C[C@H](C)OC[C@@H]3Cc3ccc(Cl)cc3)CC2)c1` [Example 30, (2S,5S)-5-(4-chlorobenzyl)-2-methyl-4-(1-(5-methylpyridazin-3-yl)piperidin-4-yl)morpholine 2,2,2-trifluoroacetate]: the IC50 is 1 to 10 µM. Regarding `C[C@H]1CN(C2CCN(c3ccnc(Cl)n3)CC2)[C@@H](Cc2ccc(Cl)cc2)CO1` [compound 66, (2S,5S)-5-(4-chlorobenzyl)-4-(1-(2-chloropyrimidin-4-yl)piperidin-4-yl)-2-methylmorpholine], the IC50 is greater than 100 µM.

For the molecule `C[C@H]1CN(C2CCN(c3ccnc(N)n3)CC2)[C@@H](Cc2ccc(Cl)cc2)CO1` [compound 67, 4-(4-((2S,5S)-5-(4-chlorobenzyl)-2-methylmorpholino)piperidin-1-yl)pyrimidin-2-amine 2,2,2-trifluoroacetate], the IC50 was greater than 100 µM. The value for `O=C1CCC(=O)N1C[C@H]1CN(C2CCN(c3ncccn3)CC2)[C@@H](Cc2ccc(Cl)cc2)CO1` [compound 77, 1-(((2R,5S)-5-(4-chlorobenzyl)-4-(1-(pyrimidin-2-yl)piperidin-4-yl)morpholin-2-yl)methyl)pyrrolidine-2,5-dione 2,2,2-trifluoroacetate] was 1 to 10 µM; that for `C[C@H]1CN(C2CCN(c3ncccc3CO)CC2)[C@@H](Cc2ccc(Cl)cc2)CO1` [compound 120, (2-(4-((2S,5S)-5-(4-chlorobenzyl)-2-methylmorpholino)piperidin-1-yl)pyridin-3-yl)methanol 2,2,2-trifluoroacetate] was greater than 100 µM; that for `Cc1nnc(N2CCC(N3C[C@H](C)OC[C@@H]3Cc3ccc(Cl)cc3)CC2)s1` [compound 182, (2S,5S)-5-(4-chlorobenzyl)-2-methyl-4-(1-(5-methyl-1,3,4-thiadiazol-2-yl)piperidin-4-yl)morpholine 2,2,2-trifluoroacetate] was greater than 100 µM. With `COC(=O)c1ccnc(F)c1N1CCC(N2C[C@H](C)OC[C@@H]2Cc2ccc(Cl)cc2)CC1` [compound 121, methyl 3-(4-((2S,5S)-5-(4-chlorobenzyl)-2-methylmorpholino)piperidin-1-yl)-2-fluoroisonicotinate], the 50% inhibitory concentration (IC50) was greater than 100 µM.

In turn, `C[C@H]1CN(C2CCN(c3nccc4ccccc34)CC2)[C@@H](Cc2ccc(Cl)cc2)CO1` [compound 116, (2S,5S)-5-(4-chlorobenzyl)-4-(1-(isoquinolin-1-yl)piperidin-4-yl)-2-methylmorpholine 2,2,2-trifluoroacetate] registered a concentration for half-maximal inhibition (IC50) greater than 100 µM. On to `CC1CC(N2C[C@H](C)OC[C@@H]2Cc2ccc(Cl)cc2)CCN1c1cc(Cl)ccn1` (stereo partly drawn) [Example 33, (2S,5S)-5-(4-chlorobenzyl)-4-(1-(4-chloropyridin-2-yl)-2-methylpiperidin-4-yl)-2-methylmorpholine 2,2,2-trifluoroacetate], for which the IC50 fell in the range of 1 to 10 µM. The value for `CC1CC(N2C[C@H](C)OC[C@@H]2Cc2ccc(Cl)cc2)CCN1c1cc(Cl)ccn1` (single isomer, unassigned) [Example 31, 2,2,2-trifluoroacetate] was 1 to 10 µM; that for `O[C@H]1C[C@H]2CN(C3CCN(c4ncccn4)CC3)[C@@H](Cc3ccc(Cl)cc3)CN2C1` [Example 42, (3S,7S,8aS)-3-(4-chlorobenzyl)-2-(1-(pyrimidin-2-yl)piperidin-4-yl)octahydropyrrolo[1,2-α]pyrazin-7-ol 2,2,2-trifluoroacetate] was 0.1 to 1 µM. The value for `Cc1ccnc(N2CCC(N3C[C@H](C)OC[C@@H]3Cc3ccc(Cl)cc3)CC2)c1C#N` [compound 47, 2-(4-((2S,5S)-5-(4-chlorobenzyl)-2-methylmorpholino)piperidin-1-yl)-4-methyl-nicotinonitrile 2,2,2-trifluoroacetate] was 0.1 to 1 µM; that for `Clc1ccc(C[C@H]2CN3CCOC[C@H]3CN2C2CCN(c3ccccn3)CC2)cc1` [compound 155, (7S,9aR)-7-(4-chlorobenzyl)-8-(1-(pyridin-2-yl)piperidin-4-yl)octahydropyrazino[2,1-c][1,4]oxazine hydrochloride] was less than 0.1 µM; that for `C[C@H]1CN(C2CCN(c3ncnc(N(C)C)n3)CC2)[C@@H](Cc2ccc(Cl)cc2)CO1` [compound 175, 4-(4-((2S,5S)-5-(4-chlorobenzyl)-2-methylmorpholino)piperidin-1-yl)-N,N-dimethyl-1,3,5-triazin-2-amine 2,2,2-trifluoroacetate] was greater than 100 µM. `C[C@H]1CN(C2CCN(c3cccc(F)c3)CC2)[C@@H](Cc2ccc(Cl)cc2)CO1` [compound 127, (2S,5S)-5-(4-chlorobenzyl)-4-(1-(3-fluorophenyl)piperidin-4-yl)-2-methylmorpholine 2,2,2-trifluoroacetate] gave an IC50 greater than 100 µM. The molecule `COc1cccnc1N1CCC(N2C[C@H](C)OC[C@@H]2Cc2ccc(Cl)cc2)CC1` [compound 162, (2S,5S)-5-(4-chlorobenzyl)-4-(1-(3-methoxypyridin-2-yl)piperidin-4-yl)-2-methylmorpholine 2,2,2-trifluoroacetate] displayed a half-maximal inhibitory concentration (IC50) greater than 100 µM. `C[C@H]1CN(C2CCN(c3nccc(C(=O)O)c3F)CC2)[C@@H](Cc2ccc(Cl)cc2)CO1` [compound 128, 2-(4-((2S,5S)-5-(4-chlorobenzyl)-2-methylmorpholino)piperidin-1-yl)-3-fluoroisonicotinic acid 2,2,2-trifluoroacetate]: the IC50 is greater than 100 µM.

With `Cc1csc(N2CCC(N3C[C@H](C)OC[C@@H]3Cc3ccc(Cl)cc3)CC2)n1` [compound 184, (2S,5S)-5-(4-chlorobenzyl)-2-methyl-4-(1-(4-methylthiazol-2-yl)piperidin-4-yl)morpholine 2,2,2-trifluoroacetate], the IC50 was in the range of 1 to 10 µM. Next, `C[C@H]1CN(C2CCN(c3ncccc3C(F)(F)F)CC2)[C@@H](Cc2ccc(Cl)cc2)CO1` [compound 49, (2S,5S)-5-(4-chlorobenzyl)-2-methyl-4-(1-(3-(trifluoromethyl)pyridin-2-yl)-piperidin-4-yl)morpholine 2,2,2-trifluoroacetate]: 10 to 100 µM. Next, `C[C@H]1CN(C2CCN(c3c(F)cccc3F)CC2)[C@@H](Cc2ccc(Cl)cc2)CO1` [compound 123, (2S,5S)-5-(4-chlorobenzyl)-4-(1-(2,6-difluorophenyl)piperidin-4-yl)-2-methylmorpholine 2,2,2-trifluoroacetate]: greater than 100 µM. The value for `Cc1cccnc1N1CCC(N2C[C@H](C)OC[C@@H]2Cc2ccc(Cl)cc2)CC1` [Example 16, (2S,5S)-5-(4-chlorobenzyl)-2-methyl-4-(1-(3-methylpyridin-2-yl)piperidin-4-yl)morpholine 2,2,2-trifluoroacetate] was greater than 100 µM; that for `Cc1ccnc(N2CCC(N3C[C@@H]4C[C@@H](O)CN4C[C@@H]3Cc3ccc(Cl)cc3)CC2)n1` [Example 41, (3S,7R,8aS)-3-(4-chlorobenzyl)-2-(1-(4-methylpyrimidin-2-yl)piperidin-4-yl)octahydropyrrolo[1,2-α]pyrazin-7-ol 2,2,2-trifluoroacetate] was 0.1 to 1 µM; that for `C[C@H]1CN(C2CCN(c3ccncn3)CC2)[C@@H](Cc2ccc(Cl)cc2)CO1` [Example 26, (2S,5S)-5-(4-chlorobenzyl)-2-methyl-4-(1-(pyrimidin-4-yl)piperidin-4-yl)morpholine 2,2,2-trifluoroacetate] was greater than 100 µM.

`CO[C@H](C)CN1C[C@H](Cc2ccc(Cl)cc2)N(C2CCN(c3ccccn3)CC2)C[C@@H]1C` [compound 107, (2S,5S)-2-(4-chlorobenzyl)-4-((R)-2-methoxypropyl)-5-methyl-1-(1-(pyridin-2-yl)piperidin-4-yl)piperazine 2,2,2-trifluoroacetate] displayed a 50% inhibitory concentration (IC50) of 0.1 to 1 µM. As to `C[C@H]1CN(C2CCN(c3c(C(=O)O)ccnc3F)CC2)[C@@H](Cc2ccc(Cl)cc2)CO1` [compound 129, 3-(4-((2S,5S)-5-(4-chlorobenzyl)-2-methylmorpholino)piperidin-1-yl)-2-fluoroisonicotinic acid], the IC50 was greater than 100 µM. As for `C[C@H]1CN(C2CCN(c3cc(C(N)=O)ccn3)CC2)[C@@H](Cc2ccc(Cl)cc2)CO1` [compound 132, 2-(4-((2S,5S)-5-(4-chlorobenzyl)-2-methylmorpholino)piperidin-1-yl)isonicotinamide 2,2,2-trifluoroacetate], the IC50 is greater than 100 µM. The value for `C[C@H]1CN(C2CCN(C(=O)OC(C)(C)C)CC2)[C@@H](Cc2ccc(Cl)cc2)CO1` [Example 8d, tert-butyl 4-((2S,5S)-5-(4-chlorobenzyl)-2-methylmorpholino)piperidine-1-carboxylate] was greater than 100 µM; that for `C[C@H]1CN(C2CCN(c3cc(CO)ccn3)CC2)[C@@H](Cc2ccc(Cl)cc2)CO1` [compound 130, (2-(4-((2S,5S)-5-(4-chlorobenzyl)-2-methylmorpholino)piperidin-1-yl)pyridin-4-yl)methanol 2,2,2-trifluoroacetate] was greater than 100 µM; that for `C[C@H]1CN(C2CCN(c3ncnc(Cl)n3)CC2)[C@@H](Cc2ccc(Cl)cc2)CO1` [compound 169, (2S,5S)-4-(1-(4-chloro-1,3,5-triazin-2-yl)piperidin-4-yl)-5-(4-chlorobenzyl)-2-methylmorpholine 2,2,2-trifluoroacetate] was greater than 100 µM.

The values above are taken from patent US20230278996A1, “YKL-40 INHIBITORS AND THEIR THERAPEUTIC APPLICATIONS” (Molecure S.A., priority 2022, published 2023).
